Source: patent US20220125898A1, “PAR2 MODULATION AND METHODS THEREOF” (JANSSEN BIOTECH, INC., priority 2019, published 2022)

Columns and labels:
[1] = target: PAR2 with the signal peptide deleted (PAR2ΔSP) (human) (UniProt P55085); assay: cell-based or functional assay
[2] = target: Human PAR2 wild type, recombinantly expressed in HEK293 cells with par1 and par2 knocked-out (human) (UniProt P55085); assay: cell-based or functional assay
[3] = target: PAR2 endogenously expressed in HEK293 cells (human) (UniProt P55085); assay: cell-based or functional assay
[4] = tested on: HEK293 cells with par1 and par2 knocked-out; assay: FLIPR characterization of par1 and par2 knock-out HEK293 cells; type: cell-based, human
Description: A PAR1, PAR2 knock-out HEK293 cell line was created by Applied StemCells (Milpitas, Calif.) using a CRISPR/Cas9 approach. Briefly, the coding region (nucleotide 374-643) of PAR1, which encodes the protein region transmembrane region 2 (TM2) to transmembrane region 3 (TM3) of PAR1, was deleted. Similarly, the coding region (281-627) of PAR2, which encodes the protein region TM2 to TM3 of PAR2, was deleted. Single cell clones were isolated. PCR analysis of the genomic DNA followed by DNA sequencing was used to confirm the deletion of the DNA fragments.
FLIPR-Tetra (Molecular Device, San Jose, Calif.) was used to monitor intracellular Ca^2+ mobilization in HEK293 cells, HEK293 cells with PAR1 and PAR2 knocked-out, and cells transiently transfected with various PAR2 expression constructs. Cells were grown in 96-well polyD-lysine coated black FLIPR plates (Corning) in DMEM supplemented with 10% FCS, 1 mM pyruvate, 20 mM HEPES, at 37° C. with 5% CO2. For transient transfection, cells were grown in 96-well polyD-lysine coated black FLIPR plates and transfected using FuGENE HD (Promega, Madison, Wis.) as the transfection reagent according to the manufacturer's instructions. […] Intracellular Ca^2+ mobilization stimulated by various concentrations of ligands (trypsin, or peptide ligand) was monitored by FLIPR-Tetra as described (Liu et al., Mol. Pharmacol. 88:911-25 (2015)). […]

PAR2(R36A) = target: T1, PAR2(R36A) (Homo sapiens, UniProt P55085, R36A); assay: FLIPR intracellular Ca2+ mobilization, full length PAR2 with Arg36Ala mutation; type: cell-based
T1 construct: expressed in transfected cells; host or cells: HEK293 cells with par1 and par2 knocked out, transient
T1 sequence (P55085 26-397 R36A): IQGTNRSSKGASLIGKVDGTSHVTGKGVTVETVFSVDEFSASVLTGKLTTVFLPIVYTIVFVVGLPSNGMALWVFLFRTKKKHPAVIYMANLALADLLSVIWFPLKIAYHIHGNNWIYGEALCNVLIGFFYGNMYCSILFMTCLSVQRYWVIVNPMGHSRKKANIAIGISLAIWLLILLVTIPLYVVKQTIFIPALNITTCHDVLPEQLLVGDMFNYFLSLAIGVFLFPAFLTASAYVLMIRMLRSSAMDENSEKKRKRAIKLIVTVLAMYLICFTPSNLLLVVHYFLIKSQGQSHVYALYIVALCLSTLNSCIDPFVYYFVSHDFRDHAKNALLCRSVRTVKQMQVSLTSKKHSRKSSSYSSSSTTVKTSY
Procedure: (§1) FLIPR-Tetra (Molecular Device, San Jose, Calif.) was used to monitor intracellular Ca^2+ mobilization in HEK293 cells, HEK293 cells with PAR1 and PAR2 knocked-out, and cells transiently transfected with various PAR2 expression constructs. Cells were grown in 96-well polyD-lysine coated black FLIPR plates (Corning) in DMEM supplemented with 10% FCS, 1 mM pyruvate, 20 mM HEPES, at 37° C. with 5% CO2. For transient transfection, cells were grown in 96-well polyD-lysine coated black FLIPR plates and transfected using FuGENE HD (Promega, Madison, Wis.) as the transfection reagent according to the manufacturer's instructions. For samples treated with protease inhibitors, protease cocktail was added to cell culture one day after transfection and incubated overnight. Two days after transfection, cell culture media were removed, and cells were washed using HMS buffer plus 20 mM HEPES. Ca^2+ dye (Flura 3) diluted in HMS buffer plus 20 mM HEPES was used to incubate cells at RT for 40 minutes to allow Ca^2+ to enter cells. […] The untransfected cells were used as negative controls.

[5] = target: T2, recombinantly expressed PAR2 (Homo sapiens, UniProt P55085); assay: FLIPR intracellular Ca2+ mobilization, recombinant wild type PAR2 transiently expressed in par1/par2 knock-out HEK293; type: cell-based
T2 construct: was used to amplify the full length PAR2 cDNA coding region; expressed in transfected cells; host or cells: HEK293 cells with par1 and par2 knocked out, transient, pcDNA3.1
T2 sequence (P55085 26-397): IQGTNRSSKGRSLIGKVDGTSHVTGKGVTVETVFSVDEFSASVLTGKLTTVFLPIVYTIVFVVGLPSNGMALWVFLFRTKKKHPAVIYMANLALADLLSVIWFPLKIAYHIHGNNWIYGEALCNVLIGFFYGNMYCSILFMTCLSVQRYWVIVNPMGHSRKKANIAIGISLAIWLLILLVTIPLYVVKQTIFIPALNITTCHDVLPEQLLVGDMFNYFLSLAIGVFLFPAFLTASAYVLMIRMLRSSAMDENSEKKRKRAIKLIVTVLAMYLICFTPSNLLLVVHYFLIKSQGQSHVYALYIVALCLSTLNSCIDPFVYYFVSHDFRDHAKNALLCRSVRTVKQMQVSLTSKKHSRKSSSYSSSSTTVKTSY
Procedure: (§2) FLIPR-Tetra (Molecular Device, San Jose, Calif.) was used to monitor intracellular Ca^2+ mobilization in HEK293 cells, HEK293 cells with PAR1 and PAR2 knocked-out, and cells transiently transfected with various PAR2 expression constructs. Cells were grown in 96-well polyD-lysine coated black FLIPR plates (Corning) in DMEM supplemented with 10% FCS, 1 mM pyruvate, 20 mM HEPES, at 37° C. with 5% CO2. For transient transfection, cells were grown in 96-well polyD-lysine coated black FLIPR plates and transfected using FuGENE HD (Promega, Madison, Wis.) as the transfection reagent according to the manufacturer's instructions. For samples treated with protease inhibitors, protease cocktail was added to cell culture one day after transfection and incubated overnight. Two days after transfection, cell culture media were removed, and cells were washed using HMS buffer plus 20 mM HEPES. Ca^2+ dye (Flura 3) diluted in HMS buffer plus 20 mM HEPES was used to incubate cells at RT for 40 minutes to allow Ca^2+ to enter cells. Intracellular Ca^2+ mobilization stimulated by various concentrations of ligands (trypsin, or peptide ligand) was monitored by FLIPR-Tetra as described (Liu et al., Mol. Pharmacol. 88:911-25 (2015)). The untransfected cells were used as negative controls.

PAR2ΔSPΔL = target: T3, PAR2ΔSPΔL (Homo sapiens, UniProt P55085); assay: FLIPR intracellular Ca2+ mobilization, PAR2 without signal peptide and tethered ligand; type: cell-based
T3 construct: expressed in transfected cells; host or cells: HEK293 cells with par1 and par2 knocked out, transient
T3 sequence (P55085 with tags, fused parts or gaps): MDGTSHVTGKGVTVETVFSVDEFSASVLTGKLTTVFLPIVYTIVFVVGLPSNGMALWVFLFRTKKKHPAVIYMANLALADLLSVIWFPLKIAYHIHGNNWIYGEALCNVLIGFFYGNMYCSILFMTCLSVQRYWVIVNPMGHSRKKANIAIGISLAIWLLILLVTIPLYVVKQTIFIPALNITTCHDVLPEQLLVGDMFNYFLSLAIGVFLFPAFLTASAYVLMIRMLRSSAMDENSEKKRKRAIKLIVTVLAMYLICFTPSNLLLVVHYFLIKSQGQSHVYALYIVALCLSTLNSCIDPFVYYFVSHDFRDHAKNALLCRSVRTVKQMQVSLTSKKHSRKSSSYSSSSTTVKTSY
Procedure: as §1

PAR2ΔSP(R36A) = target: T4, PAR2ΔSP(R36A) (Homo sapiens, UniProt P55085, R36A); assay: FLIPR intracellular Ca2+ mobilization, signal peptide-less PAR2 with Arg36Ala mutation; type: cell-based
T4 construct: expressed in transfected cells; host or cells: HEK293 cells with par1 and par2 knocked out, transient
T4 sequence (P55085 with tags, fused parts or gaps R36A): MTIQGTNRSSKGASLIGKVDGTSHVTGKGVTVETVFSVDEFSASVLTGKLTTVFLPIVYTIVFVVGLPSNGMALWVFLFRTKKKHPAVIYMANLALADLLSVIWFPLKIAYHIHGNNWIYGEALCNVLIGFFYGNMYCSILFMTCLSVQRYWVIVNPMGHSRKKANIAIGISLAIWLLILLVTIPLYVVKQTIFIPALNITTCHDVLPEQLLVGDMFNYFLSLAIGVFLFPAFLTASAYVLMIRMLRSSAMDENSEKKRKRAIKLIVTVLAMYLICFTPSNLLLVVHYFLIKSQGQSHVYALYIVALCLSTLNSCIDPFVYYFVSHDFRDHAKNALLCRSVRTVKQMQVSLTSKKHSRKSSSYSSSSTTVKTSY
Procedure: as §1

PAR2ΔSP = target: T5, PAR2ΔSP (Homo sapiens, UniProt P55085); assay: FLIPR intracellular Ca2+ mobilization, PAR2 without signal peptide in par1/par2 knock-out HEK293; type: cell-based; conditions: PAR2 without its signal peptide
T5 construct: expressed in transfected cells; host or cells: HEK293 cells with par1 and par2 knocked out, transient, pcDNA3.1
T5 sequence (P55085 with tags, fused parts or gaps): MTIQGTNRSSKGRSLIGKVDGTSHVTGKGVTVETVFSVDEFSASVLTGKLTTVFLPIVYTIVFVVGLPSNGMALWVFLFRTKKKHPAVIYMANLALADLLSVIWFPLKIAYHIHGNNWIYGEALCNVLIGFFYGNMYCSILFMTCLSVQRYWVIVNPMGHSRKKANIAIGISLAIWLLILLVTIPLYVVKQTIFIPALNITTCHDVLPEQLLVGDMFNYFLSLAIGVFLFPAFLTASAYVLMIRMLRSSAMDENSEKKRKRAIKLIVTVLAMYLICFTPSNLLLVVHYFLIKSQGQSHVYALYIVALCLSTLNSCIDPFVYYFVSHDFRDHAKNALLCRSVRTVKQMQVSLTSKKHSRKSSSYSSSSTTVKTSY
Procedure: as §2, with “controls. […]” for “controls.”

[6] = target: T6, endogenously expressed PAR2 in HEK293 cells (Homo sapiens, UniProt P55085); assay: FLIPR intracellular Ca2+ mobilization, wild type HEK293 cells; type: cell-based; conditions: endogenous PAR2, HEK293 cells
T6 construct: the endogenously expressed PAR2 in HEK293 cells; endogenous in cells; host or cells: wild type HEK293 cells
T6 sequence (P55085 26-397): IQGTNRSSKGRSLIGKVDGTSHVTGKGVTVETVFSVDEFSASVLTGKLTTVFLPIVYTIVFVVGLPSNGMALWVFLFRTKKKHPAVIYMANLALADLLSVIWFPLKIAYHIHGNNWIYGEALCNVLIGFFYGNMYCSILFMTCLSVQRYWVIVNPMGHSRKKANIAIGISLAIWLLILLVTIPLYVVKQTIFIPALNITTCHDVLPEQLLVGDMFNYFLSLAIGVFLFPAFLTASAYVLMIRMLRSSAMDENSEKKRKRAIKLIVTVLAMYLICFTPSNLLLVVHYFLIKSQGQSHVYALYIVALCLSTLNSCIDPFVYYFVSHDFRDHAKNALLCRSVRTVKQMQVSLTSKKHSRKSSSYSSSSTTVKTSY
Procedure: as §2

[7] = target: T7, PAR2 with the signal peptide deleted (PAR2ΔSP) (human, UniProt P55085 37-397); assay: cell-based or functional assay
T7 sequence: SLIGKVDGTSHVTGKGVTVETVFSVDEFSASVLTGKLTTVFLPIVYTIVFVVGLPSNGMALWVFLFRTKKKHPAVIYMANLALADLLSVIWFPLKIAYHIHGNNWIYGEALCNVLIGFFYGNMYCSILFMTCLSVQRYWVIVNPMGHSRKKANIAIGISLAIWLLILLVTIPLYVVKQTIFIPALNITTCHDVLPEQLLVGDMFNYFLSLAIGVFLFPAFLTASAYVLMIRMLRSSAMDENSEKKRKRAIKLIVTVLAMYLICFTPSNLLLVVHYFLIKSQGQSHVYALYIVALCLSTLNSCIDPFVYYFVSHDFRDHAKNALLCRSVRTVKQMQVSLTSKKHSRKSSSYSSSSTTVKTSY

[8] = target: T8, PAR2 endogenously expressed in HEK293 cells (human, UniProt P55085 37-397); assay: cell-based or functional assay
T8 sequence (looked up): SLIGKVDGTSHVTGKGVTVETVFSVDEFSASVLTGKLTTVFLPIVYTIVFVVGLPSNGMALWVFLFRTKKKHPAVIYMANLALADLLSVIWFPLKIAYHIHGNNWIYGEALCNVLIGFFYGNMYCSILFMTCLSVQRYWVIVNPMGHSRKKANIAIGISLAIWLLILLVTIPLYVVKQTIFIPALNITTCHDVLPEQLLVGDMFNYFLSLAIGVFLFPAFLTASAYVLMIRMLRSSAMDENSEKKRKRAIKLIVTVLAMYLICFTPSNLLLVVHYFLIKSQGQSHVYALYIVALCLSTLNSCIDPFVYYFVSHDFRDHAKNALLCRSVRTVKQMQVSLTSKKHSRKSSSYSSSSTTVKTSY

[9] = target: T9, Human PAR2 wild type, recombinantly expressed in HEK293 cells with par1 and par2 knocked-out (human, UniProt P55085 37-397); assay: cell-based or functional assay
T9 sequence: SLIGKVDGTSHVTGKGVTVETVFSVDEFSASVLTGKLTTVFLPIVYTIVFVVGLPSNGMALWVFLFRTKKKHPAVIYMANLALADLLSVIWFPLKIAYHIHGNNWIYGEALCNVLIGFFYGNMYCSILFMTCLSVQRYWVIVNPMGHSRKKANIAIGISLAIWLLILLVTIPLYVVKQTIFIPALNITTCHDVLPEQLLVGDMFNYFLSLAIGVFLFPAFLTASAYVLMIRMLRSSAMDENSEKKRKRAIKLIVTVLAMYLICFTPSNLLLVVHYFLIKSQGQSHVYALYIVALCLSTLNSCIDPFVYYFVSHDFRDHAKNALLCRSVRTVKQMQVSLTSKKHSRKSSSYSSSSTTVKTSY

Trypsin (sequencing grade) (enzyme)
EC50, FLIPR intracellular Ca2+ mobilization [1]: 50 nM | EC50, FLIPR intracellular Ca2+ mobilization [2]: 1.5 nM | EC50, FLIPR intracellular Ca2+ mobilization [3]: 10 nM

thrombin
response of knock-out cells to ligand [4]: lack of response

trypsin
receptor response to ligand stimulation in FLIPR assay (PAR2(R36A)): very poorly | response of knock-out cells to ligand [4]: lack of response | EC50 [5]: 1.5 nM | receptor activation in FLIPR assay (PAR2ΔSPΔL): not activated | receptor response to ligand stimulation in FLIPR assay (PAR2ΔSP(R36A)): blocked | EC50 (PAR2ΔSP): 50 nM | EC50 [6]: 10 nM

SLIGKV [PAR2 agonist peptide ligand, SLIGKV]
EC50, FLIPR intracellular Ca2+ mobilization [7]: 5800 nM | EC50, FLIPR intracellular Ca2+ mobilization, cells treated with protease inhibitor cocktail [7]: 700 nM | EC50, FLIPR intracellular Ca2+ mobilization [8]: 1500 nM | EC50, FLIPR intracellular Ca2+ mobilization [9]: 50 nM
